Measured values published in patent US10399940B2, “Substituted pyrrolidines and methods of use” (AbbVie S.à.r.l., priority 2016, dated 2019).
Where two headings read alike, the source gives them in different places.

Target: T1, F508delCFTR (Homo sapiens, UniProt P13569, DEL508-508)
T1 construct: expressed in transfected cells; host or cells: CFBE41o- (human lung derived epithelial cell line), doxycycline-inducible expression
Assay: Cell Surface Expression-Horse Radish Peroxidase (CSE-HRP) assay
Type: cell-based
Conditions: CFBE41o-F508delCFTR-HRP cells; for Maximum % activity (with co-corrector): with co-corrector (2 μM); for Maximum % activity (with co-corrector) / Maximum % activity (without co-corrector): normalized to on-plate positive control, highest concentration 20 μM
Method in brief: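 Surface F508delCFTR-HRP was read by luminol luminescence after 18–24 h compound exposure at 33 °C, without or with 2 μM co-corrector. Doses were eight 3-fold steps from 20 μM, in doxycycline-induced (0.5 μg/mL, 72 h) CFBE41o- cells. % activity was scaled to the on-plate 2 μM positive control minus DMSO; EC50 came from a variable-slope sigmoid fit.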

[1] = test compound without co-corrector, 18-24 hours at 33° C., read-out: EC50 (without co-corrector)
[2] = with co-corrector (2 μM of 3-[(2R,4R)-4-({[1-(2,2-difluoro-1,3-benzodioxol-5-yl)cyclopropyl]carbonyl}amino)-7-methoxy-3,4-dihydro-2H-chromen-2-yl]benzoic acid), read-out: EC50 (with co-corrector)

T1 sequence (P13569 with tags, fused parts or gaps DEL508-508): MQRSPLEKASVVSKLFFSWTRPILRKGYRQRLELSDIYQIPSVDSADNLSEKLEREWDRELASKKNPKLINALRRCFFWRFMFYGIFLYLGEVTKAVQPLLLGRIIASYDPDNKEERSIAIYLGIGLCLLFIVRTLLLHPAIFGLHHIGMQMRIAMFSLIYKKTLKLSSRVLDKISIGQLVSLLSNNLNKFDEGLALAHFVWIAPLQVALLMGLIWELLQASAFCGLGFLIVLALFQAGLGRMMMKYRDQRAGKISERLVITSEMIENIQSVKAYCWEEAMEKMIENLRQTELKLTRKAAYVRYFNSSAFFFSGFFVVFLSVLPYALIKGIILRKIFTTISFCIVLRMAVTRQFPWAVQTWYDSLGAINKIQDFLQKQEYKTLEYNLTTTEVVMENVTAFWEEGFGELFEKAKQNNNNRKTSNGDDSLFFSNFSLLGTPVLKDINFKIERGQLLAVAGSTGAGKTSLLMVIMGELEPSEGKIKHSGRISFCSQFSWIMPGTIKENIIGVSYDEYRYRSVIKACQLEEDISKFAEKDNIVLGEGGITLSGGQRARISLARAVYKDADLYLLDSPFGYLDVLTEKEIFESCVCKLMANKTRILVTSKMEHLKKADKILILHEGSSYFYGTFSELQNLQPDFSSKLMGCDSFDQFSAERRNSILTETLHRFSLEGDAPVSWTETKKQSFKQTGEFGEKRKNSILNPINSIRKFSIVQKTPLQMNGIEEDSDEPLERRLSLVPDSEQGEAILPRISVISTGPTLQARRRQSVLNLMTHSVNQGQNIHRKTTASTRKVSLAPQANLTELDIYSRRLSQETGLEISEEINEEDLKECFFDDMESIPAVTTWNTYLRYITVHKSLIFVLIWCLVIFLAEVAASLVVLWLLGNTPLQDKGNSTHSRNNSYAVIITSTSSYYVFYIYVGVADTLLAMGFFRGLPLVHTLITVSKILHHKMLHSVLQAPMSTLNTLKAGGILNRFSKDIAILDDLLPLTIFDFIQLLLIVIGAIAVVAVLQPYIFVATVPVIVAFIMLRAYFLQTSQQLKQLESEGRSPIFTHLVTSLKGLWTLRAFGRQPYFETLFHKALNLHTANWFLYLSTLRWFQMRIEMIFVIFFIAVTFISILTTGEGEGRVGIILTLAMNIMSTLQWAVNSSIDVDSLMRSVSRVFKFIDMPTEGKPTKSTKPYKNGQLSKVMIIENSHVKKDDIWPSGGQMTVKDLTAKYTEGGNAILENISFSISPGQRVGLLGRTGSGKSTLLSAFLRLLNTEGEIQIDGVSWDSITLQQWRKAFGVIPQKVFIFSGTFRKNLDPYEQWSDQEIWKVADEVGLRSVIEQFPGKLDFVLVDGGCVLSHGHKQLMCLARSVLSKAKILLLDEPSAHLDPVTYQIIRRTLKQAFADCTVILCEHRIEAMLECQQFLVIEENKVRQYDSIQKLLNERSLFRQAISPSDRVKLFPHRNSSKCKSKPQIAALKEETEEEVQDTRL

With COc1ncc(C(F)(F)F)cc1CO[C@H]1[C@H](C(C)(C)C)[C@@H](C(=O)O)N(C(=O)[C@@H]2CCCCO2)[C@H]1c1ccccc1C(C)C [Example 96, (2S,3R,4S,5S)-3-tert-butyl-4-{[2-methoxy-5-(trifluoromethyl)pyridin-3-yl]methoxy}-1-[(2S)-oxane-2-carbonyl]-5-[2-(propan-2-yl)phenyl]pyrrolidine-2-carboxylic acid] the EC50 [1] was < 1000 nM, the EC50 [2] was < 1000 nM and the “Maximum % activity (with co-corrector)” value was “+++ (≥350)”. For the same molecule, the “Maximum % activity (without co-corrector)” value was “+++ (≥200)”.

In the case of COc1ncc(C(F)(F)F)cc1CO[C@H]1[C@H](C(C)(C)C)[C@@H](C(=O)O)N(C(=O)[C@H]2CCCCO2)[C@H]1c1ccccc1C(C)C [Example 97, (2S,3R,4S,5S)-3-tert-butyl-4-{[2-methoxy-5-(trifluoromethyl)pyridin-3-yl]methoxy}-1-[(2R)-oxane-2-carbonyl]-5-[2-(propan-2-yl)phenyl]pyrrolidine-2-carboxylic acid], the EC50 [1] is reported as 1000 to 10000 nM, the EC50 [2] is reported as 1000 to 10000 nM and the “Maximum % activity (with co-corrector)” value is reported as “+++ (≥350)”. The “Maximum % activity (without co-corrector)” value was “++ (≥100 and <200)”.

With COc1ncc(C(F)(F)F)cc1CO[C@H]1[C@H](C(C)(C)C)[C@@H](C(=O)O)N(C(=O)[C@@H]2CCCO2)[C@H]1c1ccccc1C(C)C [Example 98, (2S,3R,4S,5S)-3-tert-butyl-4-{[2-methoxy-5-(trifluoromethyl)pyridin-3-yl]methoxy}-1-[(2S)-oxolane-2-carbonyl]-5-[2-(propan-2-yl)phenyl]pyrrolidine-2-carboxylic acid] the EC50 [1] was < 1000 nM, the EC50 [2] was < 1000 nM and the “Maximum % activity (with co-corrector)” value was “+++ (≥350)”. The “Maximum % activity (without co-corrector)” value was “++ (≥100 and <200)”.

With COc1ncc(C(F)(F)F)cc1CO[C@H]1[C@H](C(C)(C)C)[C@@H](C(=O)O)N(C(=O)OC(C)C)[C@H]1c1ccccc1Cl [Example 99, (2S,3R,4S,5S)-3-tert-butyl-5-(2-chlorophenyl)-4-{[2-methoxy-5-(trifluoromethyl)pyridin-3-yl]methoxy}-1-{[(propan-2-yl)oxy]carbonyl}pyrrolidine-2-carboxylic acid] the EC50 [1] was 1000 to 10000 nM, the EC50 [2] was 1000 to 10000 nM and the “Maximum % activity (with co-corrector)” value was “+++ (≥350)”. The “Maximum % activity (without co-corrector)” value was “++ (≥100 and <200)”.

For COc1cnc(C2CCC2)cc1CO[C@H]1[C@H](C(C)(C)C)[C@@H](C(=O)O)N(C(=O)OC(C)C)[C@H]1c1ccccc1 [Example 100, (2S,3R,4S,5S)-3-tert-butyl-4-[(2-cyclobutyl-5-methoxypyridin-4-yl)methoxy]-5-phenyl-1-{[(propan-2-yl)oxy]carbonyl}pyrrolidine-2-carboxylic acid], the EC50 [1] was 1000 to 10000 nM, the EC50 [2] was 1000 to 10000 nM and the “Maximum % activity (with co-corrector)” value was “++ (≥150 and <350)”. The “Maximum % activity (without co-corrector)” value was “+ (<100)”.

For COc1ncc(C(F)(F)F)cc1CO[C@H]1[C@H](C(C)(C)C)[C@@H](C(=O)O)N(C(=O)OC(C)C)[C@H]1c1ccccc1C1CCC1 [Example 101, (2S,3R,4S,5S)-3-tert-butyl-5-(2-cyclobutylphenyl)-4-{[2-methoxy-5-(trifluoromethyl)pyridin-3-yl]methoxy}-1-{[(propan-2-yl)oxy]carbonyl}pyrrolidine-2-carboxylic acid], the EC50 [1] was 1000 to 10000 nM, the EC50 [2] was 1000 to 10000 nM and the “Maximum % activity (with co-corrector)” value was “+++ (≥350)”. The “Maximum % activity (without co-corrector)” value was “++ (≥100 and <200)”.

With COc1ncc(C(F)(F)F)cc1CO[C@H]1[C@H](C(C)(C)C)[C@@H](C(=O)O)N(C(=O)[C@H]2CCCO2)[C@H]1c1ccccc1C(C)C [Example 102, (2S,3R,4S,5S)-3-tert-butyl-4-{[2-methoxy-5-(trifluoromethyl)pyridin-3-yl]methoxy}-1-[(2R)-oxolane-2-carbonyl]-5-[2-(propan-2-yl)phenyl]pyrrolidine-2-carboxylic acid] the EC50 [1] was 1000 to 10000 nM, the EC50 [2] was 1000 to 10000 nM and the “Maximum % activity (with co-corrector)” value was “++ (≥150 and <350)”. For the same molecule, the “Maximum % activity (without co-corrector)” value was “+ (<100)”.

With COc1ncc(C(F)(F)F)cc1CO[C@H]1[C@H](C(C)(C)C)[C@@H](C(=O)O)N(C(=O)[C@@H]2CCCCO2)[C@H]1c1ccccc1Cl [Example 103, (2S,3R,4S,5S)-3-tert-butyl-5-(2-chlorophenyl)-4-{[2-methoxy-5-(trifluoromethyl)pyridin-3-yl]methoxy}-1-[(2S)-oxane-2-carbonyl]pyrrolidine-2-carboxylic acid] the EC50 [1] was 1000 to 10000 nM, the EC50 [2] was < 1000 nM and the “Maximum % activity (with co-corrector)” value was “+++ (≥350)”. For the same molecule, the “Maximum % activity (without co-corrector)” value was “++ (≥100 and <200)”.

In the case of COc1ncc(C(F)(F)F)cc1CO[C@H]1[C@H](C(C)(C)C)[C@@H](C(=O)O)N(C(=O)[C@H]2CCCCO2)[C@H]1c1ccccc1Cl [Example 104, (2S,3R,4S,5S)-3-tert-butyl-5-(2-chlorophenyl)-4-{[2-methoxy-5-(trifluoromethyl)pyridin-3-yl]methoxy}-1-[(2R)-oxane-2-carbonyl]pyrrolidine-2-carboxylic acid], the EC50 [1] is reported as 1000 to 10000 nM, the EC50 [2] is reported as 1000 to 10000 nM and the “Maximum % activity (with co-corrector)” value is reported as “+++ (≥350)”. The “Maximum % activity (without co-corrector)” value was “++ (≥100 and <200)”.

COc1ncc(C(F)(F)F)cc1CO[C@H]1[C@H](C(C)(C)C)[C@@H](C(=O)O)N(C(=O)OC(C)C)[C@H]1c1ccccc1OC(C)C [Example 105, (2S,3R,4S,5S)-3-tert-butyl-4-{[2-methoxy-5-(trifluoromethyl)pyridin-3-yl]methoxy}-1-{[(propan-2-yl)oxy]carbonyl}-5-{2-[(propan-2-yl)oxy]phenyl}pyrrolidine-2-carboxylic acid] was tested, and the EC50 [1] was < 1000 nM, the EC50 [2] was < 1000 nM and the “Maximum % activity (with co-corrector)” value was “+++ (≥350)”. The “Maximum % activity (without co-corrector)” value was “++ (≥100 and <200)”.

For COc1nc2ccccc2cc1CO[C@H]1[C@H](C(C)(C)C)[C@@H](C(=O)O)N(C(=O)OC(C)C)[C@H]1c1ccccc1 [Example 106, (2S,3R,4S,5S)-3-tert-butyl-4-[(2-methoxyquinolin-3-yl)methoxy]-5-phenyl-1-{[(propan-2-yl)oxy]carbonyl}pyrrolidine-2-carboxylic acid], the EC50 [1] was 1000 to 10000 nM, the EC50 [2] was 1000 to 10000 nM and the “Maximum % activity (with co-corrector)” value was “++ (≥150 and <350)”. The “Maximum % activity (without co-corrector)” value was “+ (<100)”.

CC(C)OC(=O)N1[C@H](C(=O)O)[C@@H](C(C)(C)C)[C@H](OCc2cc(C(F)(F)F)cnc2O)[C@@H]1c1ccccc1 [Example 107, (2S,3R,4S,5S)-3-tert-butyl-4-{[2-hydroxy-5-(trifluoromethyl)pyridin-3-yl]methoxy}-5-phenyl-1-{[(propan-2-yl)oxy]carbonyl}pyrrolidine-2-carboxylic acid] was tested, and the EC50 [1] was 1000 to 10000 nM, the EC50 [2] was 1000 to 10000 nM and the “Maximum % activity (with co-corrector)” value was “++ (≥150 and <350)”. For the same molecule, the “Maximum % activity (without co-corrector)” value was “+ (<100)”.

For COc1ncc(C(F)(F)F)cc1CO[C@H]1[C@H](C(C)(C)C)[C@@H](C(=O)O)N(C(=O)OC(C)C)[C@H]1c1ccccc1C1=CCOCC1 [Example 108, (2S,3R,4S,5S)-3-tert-butyl-5-[2-(3,6-dihydro-2H-pyran-4-yl)phenyl]-4-{[2-methoxy-5-(trifluoromethyl)pyridin-3-yl]methoxy}-1-{[(propan-2-yl)oxy]carbonyl}pyrrolidine-2-carboxylic acid], the EC50 [1] was 1000 to 10000 nM, the EC50 [2] was 1000 to 10000 nM and the “Maximum % activity (with co-corrector)” value was “+++ (≥350)”. The “Maximum % activity (without co-corrector)” value was “++ (≥100 and <200)”.
